Legend:
[1] = Biodistribution in Sprague-Dawley rat hippocampus at 3.7 x 10^3 to 5.55 x 10'3 GBq, iv after 30 mins; assay type: ADME, organism-based; details: in vivo, 0.5 h
[2] = Biodistribution in Sprague-Dawley rat hippocampus at 3.7 x 10^3 to 5.55 x 10^3 GBq, iv after 60 mins; assay type: ADME, organism-based; details: in vivo, 1 h
Striatum [3] = assay: Biodistribution in Sprague-Dawley rat striatum at 3.7 x 10^3 to 5.55 x 10^3 GBq, iv after 5 mins; assay type: ADME, organism-based; details: in vivo
Striatum [4] = assay: Biodistribution in Sprague-Dawley rat striatum at 3.7 x 10^3 to 5.55 x 10'3 GBq, iv after 30 mins; assay type: ADME, organism-based; details: in vivo, 0.5 h
Striatum [5] = assay: Biodistribution in Sprague-Dawley rat striatum at 3.7 x 10^3 to 5.55 x 10^3 GBq, iv after 60 mins; assay type: ADME, organism-based; details: in vivo, 1 h
Cerebellum [6] = assay: Biodistribution in Sprague-Dawley rat cerebellum at 3.7 x 10'3 to 5.55 x 10^3 GBq, iv after 5 mins; assay type: ADME, organism-based; details: in vivo
Cerebellum [7] = assay: Biodistribution in Sprague-Dawley rat cerebellum at 3.7 x 10'3 to 5.55 x 10'3 GBq, iv after 30 mins; assay type: ADME, organism-based; details: in vivo, 0.5 h
Cerebellum [8] = assay: Biodistribution in Sprague-Dawley rat cerebellum at 3.7 x 10'3 to 5.55 x 10^3 GBq, iv after 60 mins; assay type: ADME, organism-based; details: in vivo, 1 h
[9] = Metabolic stability in Sprague-Dawley rat brain assessed as radioactive compound remaining after 2 mins; assay type: ADME, tissue-based; details: read-out: Stability
[10] = Metabolic stability in Sprague-Dawley rat brain assessed as radioactive compound remaining after 20 mins; assay type: ADME, tissue-based; details: read-out: Stability
[11] = Metabolic stability in Sprague-Dawley rat brain assessed as radioactive compound remaining after 40 mins; assay type: ADME, tissue-based; details: read-out: Stability
[12] = Metabolic stability in Sprague-Dawley rat brain assessed as radioactive compound remaining after 60 mins; assay type: ADME, tissue-based; details: read-out: Stability
Brain [13] = assay: Metabolic stability in Sprague-Dawley rat brain assessed as 4-(1-Methyl-4-pyridin-4-yl-1H-pyrazol-3-yl)-phenol remaining after 2 mins; assay type: ADME, tissue-based
Brain [14] = assay: Metabolic stability in Sprague-Dawley rat brain assessed as 4-(1-Methyl-4-pyridin-4-yl-1H-pyrazol-3-yl)-phenol remaining after 20 mins; assay type: ADME, tissue-based
Brain [15] = assay: Metabolic stability in Sprague-Dawley rat brain assessed as 4-(1-Methyl-4-pyridin-4-yl-1H-pyrazol-3-yl)-phenol remaining after 40 mins; assay type: ADME, tissue-based
Brain [16] = assay: Metabolic stability in Sprague-Dawley rat brain assessed as 4-(1-Methyl-4-pyridin-4-yl-1H-pyrazol-3-yl)-phenol remaining after 60 mins; assay type: ADME, tissue-based
[17] = Metabolic stability in Sprague-Dawley rat plasma assessed as radioactive compound remaining after 2 mins; assay type: ADME, cell-free; details: read-out: Stability
[18] = Metabolic stability in Sprague-Dawley rat plasma assessed as radioactive compound remaining after 20 mins; assay type: ADME, cell-free; details: read-out: Stability
[19] = Metabolic stability in Sprague-Dawley rat plasma assessed as radioactive compound remaining after 40 mins; assay type: ADME, cell-free; details: read-out: Stability
[20] = Metabolic stability in Sprague-Dawley rat plasma assessed as radioactive compound remaining after 60 mins; assay type: ADME, cell-free; details: read-out: Stability
Plasma [21] = assay: Metabolic stability in Sprague-Dawley rat plasma assessed as 4-(1-Methyl-4-pyridin-4-yl-1H-pyrazol-3-yl)-phenol remaining after 2 mins; assay type: ADME, cell-free
Plasma [22] = assay: Metabolic stability in Sprague-Dawley rat plasma assessed as 4-(1-Methyl-4-pyridin-4-yl-1H-pyrazol-3-yl)-phenol remaining after 20 mins; assay type: ADME, cell-free
Plasma [23] = assay: Metabolic stability in Sprague-Dawley rat plasma assessed as 4-(1-Methyl-4-pyridin-4-yl-1H-pyrazol-3-yl)-phenol remaining after 40 mins; assay type: ADME, cell-free
Plasma [24] = assay: Metabolic stability in Sprague-Dawley rat plasma assessed as 4-(1-Methyl-4-pyridin-4-yl-1H-pyrazol-3-yl)-phenol remaining after 60 mins; assay type: ADME, cell-free
Plasma [25] = assay: Metabolic stability in Sprague-Dawley rat plasma assessed as 4-(1-Methyl-4-pyridin-4-yl-1H-pyrazol-3-yl)-phenol remaining retention time administered intravenously measured after 60 mins postinjection; assay type: ADME, organism-based; details: in vivo, iv
Plasma [26] = assay: Metabolic stability in Sprague-Dawley rat plasma assessed as compound remaining retention time administered intravenously measured after 60 mins postinjection; assay type: ADME, organism-based; details: in vivo, iv, 1 h
Brain [27] = assay: Metabolic stability in Sprague-Dawley rat brain assessed as 4-(1-Methyl-4-pyridin-4-yl-1H-pyrazol-3-yl)-phenol remaining retention time administered intravenously measured after 60 mins postinjection; assay type: ADME, organism-based; details: in vivo, iv
Brain [28] = assay: Metabolic stability in Sprague-Dawley rat brain assessed as compound remaining retention time administered intravenously measured after 60 mins postinjection; assay type: ADME, organism-based; details: in vivo, iv, 1 h
Blood [29] = assay: Biodistribution in Sprague-Dawley rat blood at 3.7 x 10^3 to 5.55 x 10^3 GBq, iv after 5 mins; assay type: ADME, organism-based; details: in vivo
Blood [30] = assay: Biodistribution in Sprague-Dawley rat blood at 3.7 x 10^3 to 5.55 x 10'3 GBq, iv after 30 mins; assay type: ADME, organism-based; details: in vivo, 0.5 h
Blood [31] = assay: Biodistribution in Sprague-Dawley rat blood at 3.7 x 10^3 to 5.55 x 10^3 GBq, iv after 60 mins; assay type: ADME, organism-based; details: in vivo, 1 h
Lung [32] = assay: Biodistribution in Sprague-Dawley rat lung at 3.7 x 10^3 to 5.55 x 10^3 GBq, iv after 5 mins; assay type: ADME, organism-based; details: in vivo
Lung [33] = assay: Biodistribution in Sprague-Dawley rat lung at 3.7 x 10^3 to 5.55 x 10'3 GBq, iv after 30 mins; assay type: ADME, organism-based; details: in vivo, 0.5 h
Lung [34] = assay: Biodistribution in Sprague-Dawley rat lung at 3.7 x 10^3 to 5.55 x 10^3 GBq, iv after 60 mins; assay type: ADME, organism-based; details: in vivo, 1 h
Liver [35] = assay: Biodistribution in Sprague-Dawley rat liver at 3.7 x 10^3 to 5.55 x 10^3 GBq, iv after 5 mins; assay type: ADME, organism-based; details: in vivo
Liver [36] = assay: Biodistribution in Sprague-Dawley rat liver at 3.7 x 10^3 to 5.55 x 10'3 GBq, iv after 30 mins; assay type: ADME, organism-based; details: in vivo, 0.5 h
Liver [37] = assay: Biodistribution in Sprague-Dawley rat liver at 3.7 x 10^3 to 5.55 x 10^3 GBq, iv after 60 mins; assay type: ADME, organism-based; details: in vivo, 1 h
Muscle tissue [38] = assay: Biodistribution in Sprague-Dawley rat muscle at 3.7 x 10^3 to 5.55 x 10^3 GBq, iv after 5 mins; assay type: ADME, organism-based; details: in vivo
Muscle tissue [39] = assay: Biodistribution in Sprague-Dawley rat muscle at 3.7 x 10^3 to 5.55 x 10'3 GBq, iv after 30 mins; assay type: ADME, organism-based; details: in vivo, 0.5 h
Muscle tissue [40] = assay: Biodistribution in Sprague-Dawley rat muscle at 3.7 x 10^3 to 5.55 x 10^3 GBq, iv after 60 mins; assay type: ADME, organism-based; details: in vivo, 1 h
[41] = Biodistribution in Sprague-Dawley rat fat at 3.7 x 10^3 to 5.55 x 10^3 GBq, iv after 5 mins; assay type: ADME, organism-based, Adipose tissue; details: in vivo
[42] = Biodistribution in Sprague-Dawley rat fat at 3.7 x 10^3 to 5.55 x 10'3 GBq, iv after 30 mins; assay type: ADME, organism-based, Adipose tissue; details: in vivo, 0.5 h
[43] = Biodistribution in Sprague-Dawley rat fat at 3.7 x 10^3 to 5.55 x 10^3 GBq, iv after 60 mins; assay type: ADME, organism-based, Adipose tissue; details: in vivo, 1 h
Heart [44] = assay: Biodistribution in Sprague-Dawley rat heart at 3.7 x 10^3 to 5.55 x 10^3 GBq, iv after 5 mins; assay type: ADME, organism-based; details: in vivo
Heart [45] = assay: Biodistribution in Sprague-Dawley rat heart at 3.7 x 10^3 to 5.55 x 10'3 GBq, iv after 30 mins; assay type: ADME, organism-based; details: in vivo, 0.5 h
Heart [46] = assay: Biodistribution in Sprague-Dawley rat heart at 3.7 x 10^3 to 5.55 x 10^3 GBq, iv after 60 mins; assay type: ADME, organism-based; details: in vivo, 1 h
Kidney [47] = assay: Biodistribution in Sprague-Dawley rat kidney at 3.7 x 10^3 to 5.55 x 10^3 GBq, iv after 5 mins; assay type: ADME, organism-based; details: in vivo
Kidney [48] = assay: Biodistribution in Sprague-Dawley rat kidney at 3.7 x 10^3 to 5.55 x 10'3 GBq, iv after 30 mins; assay type: ADME, organism-based; details: in vivo, 0.5 h
Kidney [49] = assay: Biodistribution in Sprague-Dawley rat kidney at 3.7 x 10^3 to 5.55 x 10^3 GBq, iv after 60 mins; assay type: ADME, organism-based; details: in vivo, 1 h
Testes [50] = assay: Biodistribution in Sprague-Dawley rat testes at 3.7 x 10^3 to 5.55 x 10^3 GBq, iv after 5 mins; assay type: ADME, organism-based, Testis; details: in vivo
Testes [51] = assay: Biodistribution in Sprague-Dawley rat testes at 3.7 x 10^3 to 5.55 x 10'3 GBq, iv after 30 mins; assay type: ADME, organism-based, Testis; details: in vivo, 0.5 h
Testes [52] = assay: Biodistribution in Sprague-Dawley rat testes at 3.7 x 10^3 to 5.55 x 10^3 GBq, iv after 60 mins; assay type: ADME, organism-based, Testis; details: in vivo, 1 h
Brain [53] = assay: Biodistribution in Sprague-Dawley rat brain at 3.7 x 10^3 to 5.55 x 10^3 GBq, iv after 5 mins; assay type: ADME, organism-based; details: in vivo
Brain [54] = assay: Biodistribution in Sprague-Dawley rat brain at 3.7 x 10^3 to 5.55 x 10'3 GBq, iv after 30 mins; assay type: ADME, organism-based; details: in vivo, 0.5 h
Brain [55] = assay: Biodistribution in Sprague-Dawley rat brain at 3.7 x 10^3 to 5.55 x 10^3 GBq, iv after 60 mins; assay type: ADME, organism-based; details: in vivo, 1 h
Cortex [56] = assay: Biodistribution in Sprague-Dawley rat cortex at 3.7 x 10^3 to 5.55 x 10^3 GBq, iv after 5 mins; assay type: ADME, organism-based; details: in vivo
Cortex [57] = assay: Biodistribution in Sprague-Dawley rat cortex at 3.7 x 10^3 to 5.55 x 10'3 GBq, iv after 30 mins; assay type: ADME, organism-based; details: in vivo, 0.5 h
Cortex [58] = assay: Biodistribution in Sprague-Dawley rat cortex at 3.7 x 10^3 to 5.55 x 10^3 GBq, iv after 60 mins; assay type: ADME, organism-based; details: in vivo, 1 h
[59] = Biodistribution in Sprague-Dawley rat hippocampus at 3.7 x 10^3 to 5.55 x 10^3 GBq, iv after 5 mins; assay type: ADME, organism-based; details: in vivo

## [11CH3]n1cc(-c2ccncc2)c(-c2ccc(OCc3ccc4ccccc4n3)cc2)n1
[1]
  Drug uptake: 0.05 % ID/g
[2]
  Drug uptake: 0.051 % ID/g
Striatum [3]
  Drug uptake: 0.3 % ID/g
Striatum [4]
  Drug uptake: 0.236 % ID/g
Striatum [5]
  Drug uptake: 0.164 % ID/g
Cerebellum [6]
  Drug uptake: 0.133 % ID/g
Cerebellum [7]
  Drug uptake: 0.036 % ID/g
Cerebellum [8]
  Drug uptake: 0.035 % ID/g
[9]
  remaining at 2 min: 98.7%
[10]
  remaining at 20 min: 94.8%
[11]
  remaining at 40 min: 84.7%
[12]
  remaining at 1 h: 78.6%
Brain [13]
  Activity: 1.03%
Brain [14]
  Activity: 3.45%
Brain [15]
  Activity: 11.47%
Brain [16]
  Activity: 15.87%
[17]
  remaining at 2 min: 98.3%
[18]
  remaining at 20 min: 74.2%
[19]
  remaining at 40 min: 52.6%
[20]
  remaining at 1 h: 49.3%
Plasma [21]
  Activity: 1.23%
Plasma [22]
  Activity: 19.13%
Plasma [23]
  Activity: 35.19%
Plasma [24]
  Activity: 40.72%
Plasma [25]
  Time: 3 min
Plasma [26]
  Time: 3 min
Brain [27]
  Time: 10.5 min
Brain [28]
  Time: 10.5 min
Blood [29]
  Drug uptake: 0.123 % ID/g
Blood [30]
  Drug uptake: 0.065 % ID/g
Blood [31]
  Drug uptake: 0.047 % ID/g
Lung [32]
  Drug uptake: 0.317 % ID/g
Lung [33]
  Drug uptake: 0.155 % ID/g
Lung [34]
  Drug uptake: 0.09 % ID/g
Liver [35]
  Drug uptake: 2.766 % ID/g
Liver [36]
  Drug uptake: 3.395 % ID/g
Liver [37]
  Drug uptake: 3.364 % ID/g
Muscle tissue [38]
  Drug uptake: 0.093 % ID/g
Muscle tissue [39]
  Drug uptake: 0.059 % ID/g
Muscle tissue [40]
  Drug uptake: 0.039 % ID/g
[41]
  Drug uptake: 0.124 % ID/g
[42]
  Drug uptake: 0.075 % ID/g
[43]
  Drug uptake: 0.1 % ID/g
Heart [44]
  Drug uptake: 0.264 % ID/g
Heart [45]
  Drug uptake: 0.102 % ID/g
Heart [46]
  Drug uptake: 0.068 % ID/g
Kidney [47]
  Drug uptake: 1.229 % ID/g
Kidney [48]
  Drug uptake: 0.366 % ID/g
Kidney [49]
  Drug uptake: 0.314 % ID/g
Testes [50]
  Drug uptake: 0.16 % ID/g
Testes [51]
  Drug uptake: 0.098 % ID/g
Testes [52]
  Drug uptake: 0.068 % ID/g
Brain [53]
  Drug uptake: 0.162 % ID/g
Brain [54]
  Drug uptake: 0.066 % ID/g
Brain [55]
  Drug uptake: 0.056 % ID/g
Cortex [56]
  Drug uptake: 0.133 % ID/g
Cortex [57]
  Drug uptake: 0.044 % ID/g
Cortex [58]
  Drug uptake: 0.044 % ID/g
[59]
  Drug uptake: 0.169 % ID/g

Source: ChEMBL document CHEMBL1681699 (Bioorg Med Chem, 2011)
